Results reported in patent US20100105727A1, “NOVEL BENZAMIDE DERIVATIVES AND PROCESS FOR THE PREPARTION THEREOF” (DONG-A-PHARM. CO., LTD., priority 2007, published 2010).

Target: T1, human 5-HT4 receptor (Homo sapiens, UniProt Q13639)
T1 construct: expressed in transfected cells; host or cells: COS-7
Assay: Binding affinity of compounds for 5-HT4 receptor (radioligand displacement, membrane lysates of COS-7 cells)
Conditions: inhibition of specific binding of 0.595 nM [H3]-AGR113808; COS-7 cell membrane lysates expressing human 5-HT4 receptor
Description: For this purpose, COS-7 cells expressing the human 5-HT4 receptor were constructed and lysed to obtain cell membrane lysates which were then used in binding assay experiments. For binding assay, the membrane lysates were mixed and incubated with different concentrations of test materials and [H3]-AGR113808. […] After incubation was completed, the reaction products were collected in a GF/B glass fiber filter using a Packard cell harvester, and the bound radioactivity was then determined using a liquid cell scintillation counter (Packard TopCount NXT™, Perkin Elmer). Specific binding of the radioligand to the 5-HT4 receptor was calculated by subtracting the non-specific binding of the radioligand from the total radioligand binding. IC50 was calculated from % inhibition of specific binding of the radioligand to the 5-HT4 receptor, with respect to varying concentrations of the test materials.

T1 sequence (Q13639 whole entry): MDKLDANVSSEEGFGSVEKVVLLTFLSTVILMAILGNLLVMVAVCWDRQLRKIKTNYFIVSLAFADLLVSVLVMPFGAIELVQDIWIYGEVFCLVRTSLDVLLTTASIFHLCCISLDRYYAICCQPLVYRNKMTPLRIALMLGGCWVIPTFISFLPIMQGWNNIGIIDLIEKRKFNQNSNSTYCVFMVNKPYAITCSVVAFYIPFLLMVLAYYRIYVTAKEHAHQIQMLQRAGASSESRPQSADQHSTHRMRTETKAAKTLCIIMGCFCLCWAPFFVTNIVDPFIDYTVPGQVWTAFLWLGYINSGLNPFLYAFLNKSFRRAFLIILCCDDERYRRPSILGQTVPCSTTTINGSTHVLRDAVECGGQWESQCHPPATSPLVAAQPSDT

Compound | IC50
COc1cc(N)c(Cl)cc1C(=O)N[C@H]1CCN(CCCCCC(=O)Nc2cc(C)cc(C)n2)C[C@H]1OC (relative stereo) [Compound 60, cis-4-amino-5-chloro-N-[1-(6-oxo-6-(4,6-dimethylpyridin-2-ylamino)hexyl)-3-methoxypiperidin-4-yl]-2-methoxybenzamide] | 85 nM
CCOC(=O)N1CCC(CCN2CC[C@H](NC(=O)c3cc(Cl)c(N)cc3OC)[C@H](OC)C2)CC1 (relative stereo) [Compound 3, ethyl 4-[2-(cis-4-(4-amino-5-chloro-2-methoxybenzamido)-3-methoxypiperidin-1-yl)ethyl]piperidine-1-carboxylate] | 151 nM
CCCC(=O)N1CCC(CN2CC[C@H](NC(=O)c3cc(Cl)c(N)cc3OC)[C@H](OC)C2)CC1 (relative stereo) [Compound 20, cis-4-amino-5-chloro-N-[1-((1-butyrylpiperidin-4-yl)methyl)-3-methoxypiperidin-4-yl]-2-methoxybenzamide] | 106 nM
CCCC(C)C(=O)N1CCC(CN2CC[C@H](NC(=O)c3cc(Cl)c(N)cc3OC)[C@H](OC)C2)CC1 (relative stereo) [Compound 24, cis-4-amino-5-chloro-N-[1-((1-(2-methylpentanoyl)piperidin-4-yl)methyl)-3-methoxypiperidin-4-yl]-2-methoxybenzamide] | 58 nM
CCCCC(CC)COC(=O)N1CCC(CN2CC[C@H](NC(=O)c3cc(Cl)c(N)cc3OC)[C@H](OC)C2)CC1 (relative stereo) [Compound 11, 2-ethylhexyl 4-[(cis-4-(4-amino-5-chloro-2-methoxybenzamido)-3-methoxypiperidin-1-yl)methyl]piperidine-1-carboxylate] | 30 nM
COc1cc(N)c(Cl)cc1C(=O)N[C@H]1CCN(CC2CCN(C(=O)OCC(C)C)CC2)C[C@H]1OC (relative stereo) [Compound 9, isobutyl 4-[(cis-4-(4-amino-5-chloro-2-methoxybenzamido)-3-methoxypiperidin-1-yl)methyl]piperidine-1-carboxylate] | 108 nM
COc1cc(N)c(Cl)cc1C(=O)N[C@H]1CCN(CCC(=O)Nc2ccc3ncccc3c2)C[C@H]1OC (relative stereo) [Compound 57, cis-4-amino-5-chloro-N-[1-(3-oxo-3-(quinolin-6-ylamino)propyl)-3-methoxypiperidin-4-yl]-2-methoxybenzamide] | 53 nM
CCC(C)CCOC(=O)N1CCC(CN2CC[C@H](NC(=O)c3cc(Cl)c(N)cc3OC)[C@H](OC)C2)CC1 (relative stereo) [Compound 12, 3-methyl-pentyl 4-[(cis-4-(4-amino-5-chloro-2-methoxybenzamido)-3-methoxypiperidin-1-yl)methyl]piperidine-1-carboxylate] | 192 nM
COc1cc(N)c(Cl)cc1C(=O)N[C@H]1CCN(CC2CCN(C(=S)CCC(C)C)CC2)C[C@H]1OC (relative stereo) [Compound 37, cis-4-amino-5-chloro-N-[1-((1-(4-methylpentanethioyl)piperidin-4-yl)methyl)-3-methoxypiperidin-4-yl]-2-methoxybenzamide] | 175 nM
COc1cc(N)c(Cl)cc1C(=O)N[C@H]1CCN(CCCCCC(=O)Nc2ccc3[nH]ccc3c2)C[C@H]1OC (relative stereo) [Compound 62, cis-4-amino-5-chloro-N-[1-(6-oxo-6-(1H-indol-5-ylamino)hexyl)-3-methoxypiperidin-4-yl]-2-methoxybenzamide] | 44 nM
COc1cc(N)c(Cl)cc1C(=O)N[C@@H]1CCN(CC2CCN(S(C)(=O)=O)CC2)C[C@@H]1OC [Compound 44, (3S,4R)-4-amino-5-chloro-N-[1-((1-(methylsulfonyl)piperidin-4-yl)methyl)-3-methoxypiperidin-4-yl]-2-methoxybenzamide] | 116 nM
C=CCOC(=O)N1CCC(CN2CC[C@H](NC(=O)c3cc(Cl)c(N)cc3OC)[C@H](OC)C2)CC1 (relative stereo) [Compound 10, allyl 4-[(cis-4-(4-amino-5-chloro-2-methoxybenzamido)-3-methoxypiperidin-1-yl)methyl]piperidine-1-carboxylate] | 93 nM
